From article PMC11996864, “A small-molecule inhibitor of BCL10-MALT1 interaction abrogates progression of diffuse large B cell lymphoma” (The Journal of Clinical Investigation, 2025)
Several values for one entry are separate records, joined by “and”; a condition that tells them apart may be missing. Equal entries are not always repeated.

What was measured:
TMD8 cells [1] = assay: IL6 and IL10 mRNA, qRT-PCR; type: cell-based, human; conditions: TMD8, 1 μM; for IL6 and IL10 mRNA levels: 24 hours, result in words
Description: TMD8 cells were treated with small molecule inhibitors for 24 with cultures conditions described above except that FBS was 5%. OCI-Ly3 were treated with inhibitors in serum free media for 24 hours. Total RNA extraction from cell lines was performed using RNeasy Plus Mini Kit (Qiagen, Cat# 74136). […]
Kit. RNA was transcribed into cDNA using High-Capacity cDNA Reverse Transcription Kit (Applied Biosystems, Cat# 4368814) according to manufacturer’s instructions. RT-PCR was performed using TaqMan Universal PCR Master Mix (Applied Biosystems, Cat# 4304437) and run on a StepOnePlus Real-Time PCR machine (Applied Biosystems). The following probes from ThermoFisher Scientific were used for qRT-PCR: IL2 TaqMan probe Hs00174114, IL6 TaqMan

[2] = test system: ERK1/2 phosphorylation in Jurkat T cells; assay: ERK phosphorylation after CD3/CD28 stimulation (MALT1-independent control); type: cell-based, human; conditions: for ERK phosphorylation: result in words; for pERK 1/2 (normalized): Jurkat, 1 μM;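 for pERK 1/2 (normalized): Phosphorylated ERK1/2 relative to total ERK1/2 protein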
Description: Western blot analysis of RelB and N4BP1 cleavage was used to test the effect of small molecules on MALT1 protease activity. To this end, 3 million Jurkat T cells were pretreated with compounds for 24 hours in serum-free media, and then 5 μM MG-132 was added for 1 hour before stimulation with CD3/CD28 (Stemcell Technologies, catalog 10971), and lysed in RIPA buffer (Millipore, catalog 20-188) with protease and phosphatase inhibitor cocktail (Pierce, catalog 78446). IKKα/β phosphorylation and IκBα phosphorylation were used as measures of MALT1 scaffolding activity, while ERK1/2 phosphorylation was used as a control. […] For experiments evaluating RelB cleavage and phosphorylation of IκBα in TMD8 cells, cells were treated with compounds for 24 hours in media containing 5% FBS. For RelB Western blot analysis, 5 μM MG-132 (Cell Signaling Technology, catalog 2194s) was added 4 hours before lysis in RIPA lysis buffer with protease/phosphatase inhibitors.

TMD8 cells [3] = assay: cells; set-up: species or system TMD8 or OCI-Ly3; Inhibition of spontaneous IL-6 secretion from ABC-DLBCL cells, human IL-6 ELISA of supernatants; conditions: Homo sapiens, TMD8, 20 h; IL-6 secretion; read-out: IC50 (µM) IL-6 inhibition
Description: (§1) Cytokine ELISAs. Cytokines in cell culture supernatants were measured 20-24h after treatment with 0, 0.01, 0.03, 0.1, 0.3, 1, or 3 µM of compounds using the following ELISA kits according to the manufacturer’s instructions: Human IL-2 ELISA (BioLegend Cat# 431804), Human IL-6 ELISA (BioLegend Cat# 430504), and Human IL-10 ELISA (BioLegend Cat# 430604). TMD8 and OCI-Ly3 cells were treated with specific doses of compounds in serum-free media for 20 hours. Jurkat T cells were pretreated with specific doses of compounds for 8 hours in serum-free media, then stimulated with PMA/ionomycin for 16 hours prior to the collection of supernatants. Mouse splenocytes were isolated from spleens of C57/BL6 mice by passing spleens through a 70 micron filter followed by red blood cell lysis using ACK lysing buffer (Quality Biologics, Cat# 118-156-101). […] Supernatant was collected at 24 hours and mouse IL-2 levels were analyzed via ELISA (R&D Systems, Cat# DY402-05). IL-6 and IL-10 are NF-κB–induced cytokines that promote the proliferation and survival of malignant B cells through both autocrine and paracrine mechanisms ([44]), and are negative prognostic factors in ABC-DLBCL ([45], [46]). ABC-DLBCL cell lines spontaneously secrete substantial levels of IL-6 and IL-10, whereas GCB-DLBCL cell lines express only a negligible amount of these cytokines ([24]). […] The IC50 for inhibition of cytokine secretion by each compound in each cell line is reported in Supplemental Table 1.  Figure 4 M1i-124 and M1i-124d1 inhibit MALT1 protease and scaffolding functions, and MALT1-dependent cytokine secretion, in ABC-DLBCL cells. (A and B) Effect of 1 μM compound pretreatment on constitutive RelB cleavage (A) and IκB phosphorylation (B) within TMD8 cells. Representative Western blots are shown along with quantification (mean ± SEM; n = 2). (C) IL6 and IL10 mRNA levels in TMD8 cells treated with 1 μM M1i-124 or M1i-124d1 (mean ± SEM; n = 6). […] Statistical analyses were performed using 1-way ANOVA and Dunnett’s multiple-comparison test. **P < 0.01, ***P < 0.001, ****P < 0.0001.

OCI-Ly3 cells = assay: cells; set-up: species or system TMD8 or OCI-Ly3; Inhibition of spontaneous IL-6 secretion from ABC-DLBCL cells, human IL-6 ELISA of supernatants; conditions: Homo sapiens, OCI-Ly3, 20 h; IL-6 secretion; read-out: IC50 (µM) IL-6 inhibition
Description: as §1

Q: For O=S(=O)(NCc1ccc2c(c1)OCO2)c1ccc(Cc2ccc(S(=O)(=O)NCc3ccc4c(c3)OCO4)cc2)cc1 [M1i-124], which “IL-10 mRNA (normalized)” value (TMD8 cells [1]) is on record?
A: 0.19 and 0.23 and 0.25 and 0.2 and 0.18 and 0.32

Q: What about the “IL6 and IL10 mRNA levels” value (TMD8 cells [1]) of the same compound?
A: significantly decrease IL6 and IL10 mRNA levels

Q: What about the ERK phosphorylation [2] of the same compound?
A: unaffected

Q: And the IC50 (TMD8 cells [3])?
A: 1.3 µM

Q: And the IC50 (OCI-Ly3 cells)?
A: 0.8 µM

Q: Which “IL-10 mRNA (normalized)” value (TMD8 cells [1]) does the source give for COc1ccc(CNS(=O)(=O)c2ccc(Cc3ccc(S(=O)(=O)NCc4ccc(OC)cc4)cc3)cc2)cc1 [M1i-124d1] here?
A: 0.31 and 0.33 and 0.37 and 0.53 and 0.28 and 0.52

Q: What about the “IL6 and IL10 mRNA levels” value (TMD8 cells [1]) of the same compound?
A: significantly decrease IL6 and IL10 mRNA levels

Q: And the “pERK 1/2 (normalized)” value ([2]; CD3/CD28 5 min)?
A: 1.155 and 0.776 and 1.27 and 0.7498 and 0.998

Q: And the “pERK 1/2 (normalized)” value ([2]; CD3/CD28 10 min)?
A: 1.2674 and 0.9152 and 1.197 and 0.7135 and 0.9691

Q: What about the “pERK 1/2 (normalized)” value ([2]; CD3/CD28 15 min) of the same compound?
A: 1.05 and 0.8514 and 1.066 and 0.6774 and 0.9099

Q: And the “pERK 1/2 (normalized)” value ([2]; CD3/CD28 20 min)?
A: 0.8015 and 0.6878 and 0.9541 and 0.7317 and 0.9634

Q: And the ERK phosphorylation [2]?
A: unaffected

Q: What about the IC50 (TMD8 cells [3]) of the same compound?
A: 0.8 µM

Q: And the IC50 (OCI-Ly3 cells)?
A: > 3 µM
